Molecular target: PKC θ (Homo sapiens, UniProt Q04759)
Assay: PKC θ enzyme inhibition test (TR-FRET)
Type: biochemical
Conditions: 1 μM test compound, well without enzyme = 100% inhibition; for inhibition at 1 µM: read-out: PKC θ inhibitory activity (%, 1 μM)
Description: PKC θ enzyme inhibitory activities of test compounds were measured by TR-FRET method. First, a test compound diluted with assay buffer (20 mM Tris-HCl (pH 7.5), 5 mM MgAcetate, 0.1 mM CaCl2, 1 mM DTT, 0.01% Tween20, 0.05% BSA, 10% PKC Activator (Millipore)) was added to 384-well plate at 2 μL each. Then, a solution diluted with assay buffer to […] of PKC θ and 1.2 μM of a fluorescence-labeled peptide substrate (Fluorescein-PKC Substrate, Life Technologies) was added by 2 μL. Then, enzyme reaction was started by adding 2 μL each of ATP solution prepared with assay buffer to 60 μM. After the reaction at room temperature for 1 hr, TR-FRET Dilution Buffer (Life Technologies) prepared to 20 mM EDTA, 0.6 nM terbium-labeled anti-phosphoserine antibody (Life Technologies) was added by 6 μL. After standing at room temperature for 1 hr, fluorescence intensity (excitation wavelength 340 nm, fluorescence wavelength 520 nm, delay time 100 microseconds) was measured by a plate reader, Envision (PerkinElmer). The inhibitory activity of each compound was calculated as relative activity value where fluorescence intensity of a well without enzyme is considered as 100% inhibition.

PKC θ, sequence (Q04759 whole entry): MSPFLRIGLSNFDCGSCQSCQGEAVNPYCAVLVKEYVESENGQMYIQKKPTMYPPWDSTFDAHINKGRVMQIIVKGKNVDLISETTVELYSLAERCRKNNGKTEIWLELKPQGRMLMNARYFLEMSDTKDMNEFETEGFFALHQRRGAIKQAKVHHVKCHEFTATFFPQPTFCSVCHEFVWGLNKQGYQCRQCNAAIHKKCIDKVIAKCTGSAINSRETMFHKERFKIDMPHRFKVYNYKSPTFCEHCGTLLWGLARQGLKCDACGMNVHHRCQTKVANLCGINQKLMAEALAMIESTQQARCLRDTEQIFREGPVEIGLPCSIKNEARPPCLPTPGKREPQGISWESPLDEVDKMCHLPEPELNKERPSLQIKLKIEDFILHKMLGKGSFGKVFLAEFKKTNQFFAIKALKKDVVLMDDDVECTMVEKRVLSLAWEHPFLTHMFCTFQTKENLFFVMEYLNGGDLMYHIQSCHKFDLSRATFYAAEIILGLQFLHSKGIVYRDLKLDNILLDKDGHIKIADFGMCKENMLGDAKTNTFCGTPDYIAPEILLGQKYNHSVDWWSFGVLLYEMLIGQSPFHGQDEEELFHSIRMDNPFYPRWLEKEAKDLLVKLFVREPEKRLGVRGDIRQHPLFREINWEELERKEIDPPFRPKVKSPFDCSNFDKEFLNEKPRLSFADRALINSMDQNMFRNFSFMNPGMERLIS

SMILES | inhibition at 1 µM [%] | PKC θ inhibitory activity (%, 1 μM) [%]
CCOc1ccnc2[nH]c(=O)n(-c3ccc4ncn(C)c4c3)c12 [Example 7, 7-ethoxy-1-(1-methyl-1H-benzimidazol-6-yl)-1,3-dihydro-2H-imidazo[4,5-b]pyridin-2-one] | 100 | –
CCOc1ccnc2[nH]c(=O)n(-c3ccc4ncc(CC)n4c3)c12 [Example 11, 7-ethoxy-1-(3-ethylimidazo[1,2-a]pyridin-6-yl)-1,3-dihydro-2H-imidazo[4,5-b]pyridin-2-one] | 96 | –
CCOc1ccnc2[nH]c(=O)n(-c3ccc4ncc(CC)n4n3)c12 [Example 12, 7-ethoxy-1-(3-ethylimidazo[1,2b]pyridazin-6-yl)-1,3-dihydro-2H-imidazo[4,5-b]pyridin-2-one] | – | 91
CCOc1ccnc2[nH]c(=O)n(-c3ccc4ncn(C)c4n3)c12 [Example 13, 7-ethoxy-3′-methyl-3′H-1,5′-biimidazo[4,5-b]pyridin-2(3H)-one] | 90 | –
CCOc1ccnc2[nH]c(=O)n(-c3ccc4occ(C)c4c3)c12 [Example 15, 7-ethoxy-1-(3-methyl-1-benzo-furan-5-yl)-1,3-dihydro-2H-imidazo[4,5-b]pyridin-2-one] | 99 | –
CCOc1ccnc2[nH]c(=O)n(-c3ccn4ncc(CC)c4c3)c12 [Example 17, 7-ethoxy-1-(3-ethylpyrazolo[1,5-a]pyridin-5-yl)-1,3-dihydro-2H-imidazo[4,5-b]pyridin-2-one] | 100 | –
CCOc1ccnc2[nH]c(=O)n(-c3ccc4[nH]nc(C)c4c3)c12 [Example 18, 7-ethoxy-1-(3-methyl-1H-indazol-5-yl)-1,3-dihydro-2H-imidazo[4,5-b]pyridin-2-one] | 97 | –
CCOc1ccnc2[nH]c(=O)n(-c3ccc4nccc(C(N)=O)c4c3)c12 [Example 27, 6-(7-ethoxy-2-oxo-2,3-dihydro-1H-imidazo[4,5-b]pyridin-1-yl)quinoline-4-carboxamide] | 90 | –
CCOc1ccnc2[nH]c(=O)n(-c3ccc4ncnc(OC)c4c3)c12 [Example 39, 7-ethoxy-1-(4-methoxyquinazolin-6-yl)-1,3-dihydro-2H-imidazo[4,5-b]pyridin-2-one] | 102 | –
CCOc1ccnc2[nH]c(=O)n(-c3ccc4nccc(OC)c4c3)c12 [Example 41, 7-ethoxy-1-(4-methoxyquinolin-6-yl)-1,3-dihydro-2H-imidazo[4,5-b]pyridin-2-one] | 97 | –
CCOc1ccnc2[nH]c(=O)n(-c3ccc4nccc(OC)c4n3)c12 [Example 55, 7-ethoxy-1-(8-methoxy-1,5-naphthyridin-2-yl)-1,3-dihydro-2H-imidazo[4,5-b]pyridin-2-one] | 124 | –
CCOc1ccnc2[nH]c(=O)n(-c3ccc4nncc(OC)c4c3)c12 [Example 60, 7-ethoxy-1-(4-methoxycinnolin-6-yl)-1,3-dihydro-2H-imidazo[4,5-b]pyridin-2-one] | 101 | –
CCOc1ccnc2[nH]c(=O)n(-c3ccc4ncc5c(c4c3)OCCO5)c12 [Example 75, 1-(2,3-dihydro[1,4]-dioxino[2,3-c]quinolin-9-yl)-7-ethoxy-1,3-dihydro-2H-imidazo[4,5-b]pyridin-2-one] | 101 | –
CCOc1ccnc2[nH]c(=O)n(-c3ccc4nccc(N5CCNCC5)c4c3)c12 [Example 92, 7-ethoxy-1-(4-(piperazin-1-yl)quinolin-6-yl)-1,3-dihydro-2H-imidazo[4,5-b]pyridin-2-one] | 102 | –
CCOc1cnc2ccc(-n3c(=O)[nH]c4nccc(OCC)c43)cc2n1 [Example 93, 7-ethoxy-1-(3-ethoxyquinoxalin-6-yl)-1,3-dihydro-2H-imidazo[4,5-b]pyridin-2-one] | 94 | –
CCOc1ccnc2[nH]c(=O)n(-c3cc4c5c(cnc4cc3F)OCCO5)c12 [Example 94, 7-ethoxy-1-(8-fluoro-2,3-dihydro[1,4]dioxino[2,3-c]quinolin-9-yl)-1,3-dihydro-2H-imidazo[4,5-b]pyridin-2-one] | 101 | –
CCOc1ccnc2[nH]c(=O)n(-c3ccc4ncc(-c5cnn(C)c5)c(OC)c4c3)c12 [Example 177, 7-ethoxy-1-(4-methoxy-3-(1-methyl-1H-pyrazol-4-yl)quinolin-6-yl)-1,3-dihydro-2H-imidazo[4,5-b]pyridin-2-one] | 100 | –
CCOc1ccnc2[nH]c(=O)n(-c3ccc4ncc(-c5cn[nH]c5)c(OC)c4c3)c12 [Example 185, 7-ethoxy-1-(4-methoxy-3-(1H-pyrazol-4-yl)quinolin-6-yl)-1,3-dihydro-2H-imidazo[4,5-b]pyridin-2-one] | 101 | –
COc1cnnc2ccc(-n3c(=O)[nH]c4nccc(OC5CCC5)c43)cc12 [Example 204, 7-(cyclobutyloxy)-1-(4-methoxycinnolin-6-yl)-1,3-dihydro-2H-imidazo[4,5-b]pyridin-2-one] | 101 | –
CCOc1ccnc2[nH]c(=O)n(-c3ccc4ncc(F)c(OC)c4c3)c12 [Example 230, 7-ethoxy-1-(3-fluoro-4-methoxyquinolin-6-yl)-1,3-dihydro-2H-imidazo[4,5-b]pyridin-2-one] | 102 | –
